Patent publication US20250313563A1, “GLYCOGEN SYNTHASE KINASE 3 INHIBITORS AND USES THEREOF” (The Broad Institute, Inc., priority 2022, published 2025)
pIC50: −log10 of the molar value. Where two headings read alike, the source gives them in different places.

Experiments:
[1] = molecular target: GSK3α (GST-full length GSK3α) (Homo sapiens (Human), UniProt P49840); test: GSK3α TR-FRET kinase assay; format: biochemical
Summary of the method: (§1)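 In this time-resolved FRET format, kinase reactions contained 200 nM biotinylated, S645-phosphorylated glycogen synthase 631-650 peptide and either isoform-specific ATP (2 μM GSK3b, 4 μM GSK3α) or 1 mM ATP. They were quenched with EDTA after 100 min at ambient temperature. Inhibition curves gave IC50 values.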

[2] = molecular target: GSK3b (GST-full length GSK3b) (Homo sapiens (Human), UniProt P49841); test: GSK3b TR-FRET kinase assay; format: biochemical
Chain of GSK3b (GST-full length GSK3b) (P49841 whole entry): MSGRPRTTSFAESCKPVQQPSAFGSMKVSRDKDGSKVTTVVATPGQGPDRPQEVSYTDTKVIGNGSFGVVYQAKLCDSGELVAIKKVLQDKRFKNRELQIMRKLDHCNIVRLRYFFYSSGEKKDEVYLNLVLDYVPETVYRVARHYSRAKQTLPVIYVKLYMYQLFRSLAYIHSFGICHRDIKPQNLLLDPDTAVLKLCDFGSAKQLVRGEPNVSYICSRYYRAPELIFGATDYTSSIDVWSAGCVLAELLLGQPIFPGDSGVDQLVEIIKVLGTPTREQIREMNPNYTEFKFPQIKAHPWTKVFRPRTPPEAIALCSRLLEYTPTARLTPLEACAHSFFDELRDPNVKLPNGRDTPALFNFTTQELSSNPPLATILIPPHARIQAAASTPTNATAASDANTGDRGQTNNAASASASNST
Summary of the method: as §1

[3] = 1 nM GSK3α, 4 μM ATP, 30 minute preincubation, Table 16, read-out: GSK3-A TR-FRET BIOCHEMICAL (TR-FRET)
[4] = 1 nM GSK3b, 2 μM ATP, 30 minute preincubation, Table 16, read-out: GSK3-B TR-FRET BIOCHEMICAL (TR-FRET)
[5] = GSK3-A (TR-FRET 1 mM ATP), GMean, IC50, 1 mM ATP, geometric mean
[6] = GSK3-B (TR-FRET 1 mM ATP), GMean, IC50, 1 mM ATP, geometric mean
[7] = 1 nM GSK3α, 4 μM ATP, 30 minute preincubation, read-out: GSK3-A TR-FRET BIOCHEMICAL (TR-FRET), IC50
[8] = 1 nM GSK3b, 2 μM ATP, 30 minute preincubation, read-out: GSK3-B TR-FRET BIOCHEMICAL (TR-FRET), IC50
[9] = read-out: GSK3-A (TR-FRET 1 mM ATP), GMean, IC50, 1 mM ATP, geometric mean
[10] = read-out: GSK3-B (TR-FRET 1 mM ATP), GMean, IC50, 1 mM ATP, geometric mean

Chain of GSK3α (GST-full length GSK3α) (P49840 whole entry, canonical isoform): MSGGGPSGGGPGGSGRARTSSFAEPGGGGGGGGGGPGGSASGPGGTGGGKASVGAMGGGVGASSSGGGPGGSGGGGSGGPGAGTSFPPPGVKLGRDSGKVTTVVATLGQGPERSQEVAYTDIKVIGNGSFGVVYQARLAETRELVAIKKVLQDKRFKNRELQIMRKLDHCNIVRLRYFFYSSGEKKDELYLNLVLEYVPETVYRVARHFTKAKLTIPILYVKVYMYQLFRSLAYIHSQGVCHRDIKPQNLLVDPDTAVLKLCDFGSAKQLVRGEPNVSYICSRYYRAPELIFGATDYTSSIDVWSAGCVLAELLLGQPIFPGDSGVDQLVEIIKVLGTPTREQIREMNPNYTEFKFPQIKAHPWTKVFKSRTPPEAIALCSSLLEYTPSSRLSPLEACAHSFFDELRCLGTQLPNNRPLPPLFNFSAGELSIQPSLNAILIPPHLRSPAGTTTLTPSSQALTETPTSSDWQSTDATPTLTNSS

pIC50 [1, 7]	pIC50 [2, 8]	further results	SMILES
–	–	pIC50 [1, 3]: ≥ 7.00; pIC50 [2, 4]: ≥ 7.00	COCc1ccc(S(=O)(=O)N2CCC3(CC2)C2=C(CC(C)(C)CC2=O)Nc2n[nH]cc23)cc1 [Compound 947250]
–	–	pIC50 [1, 3]: 6.00 to 7.00; pIC50 [2, 4]: 6.00 to 7.00	CC1(C)CC(=O)C2=C(C1)Nc1n[nH]cc1C21CCN(S(=O)(=O)c2ccc(F)cn2)CC1 [Compound 947251]
–	–	pIC50 [1, 3]: ≥ 7.00; pIC50 [2, 4]: ≥ 7.00	CCc1ncc(S(=O)(=O)N2CCC3(CC2)C2=C(CC(C)(C)CC2=O)Nc2n[nH]cc23)s1 [Compound 947252]
–	–	pIC50 [1, 3]: ≥ 7.00; pIC50 [1, 5]: 6.00 to 7.00; pIC50 [2, 4]: ≥ 7.00; pIC50 [2, 6]: 5.30 to 6.00	CCOc1cccc(S(=O)(=O)N2CCC3(CC2)C2=C(CC(C)(C)CC2=O)Nc2n[nH]cc23)c1 [Compound 947253]
–	–	pIC50 [1, 3]: ≥ 7.00; pIC50 [1, 5]: ≥ 7.00; pIC50 [2, 4]: ≥ 7.00; pIC50 [2, 6]: 6.00 to 7.00	CC1(C)CC(=O)C2=C(C1)Nc1n[nH]cc1C21CCN(S(=O)(=O)c2cccc(C#N)c2)CC1 [Compound 947254]
≥ 7.00	≥ 7.00	pIC50 [1, 5]: ≥ 7.00; pIC50 [2, 6]: 6.00 to 7.00	COc1ccc(S(=O)(=O)N2CCC3(CC2)C2=C(CC(C)(C)CC2=O)Nc2n[nH]cc23)c(F)c1 [Compound 947255]
–	–	pIC50 [1, 3]: ≥ 7.00; pIC50 [2, 4]: ≥ 7.00	CC1(C)CC(=O)C2=C(C1)Nc1n[nH]cc1C21CCN(S(=O)(=O)c2ccc(C(F)(F)F)cc2)CC1 [Compound 947256]
–	–	pIC50 [1, 3]: 6.00 to 7.00; pIC50 [2, 4]: 5.30 to 6.00	Cc1nn(C)c(C)c1S(=O)(=O)N1CCC2(CC1)C1=C(CC(C)(C)CC1=O)Nc1n[nH]cc12 [Compound 947257]
–	–	pIC50 [1, 3]: ≥ 7.00; pIC50 [2, 4]: ≥ 7.00	CC(C)n1ccc(S(=O)(=O)N2CCC3(CC2)C2=C(CC(C)(C)CC2=O)Nc2n[nH]cc23)n1 [Compound 947258]
–	–	pIC50 [1, 3]: ≥ 7.00; pIC50 [2, 4]: ≥ 7.00	Cc1nc(C)c(S(=O)(=O)N2CCC3(CC2)C2=C(CC(C)(C)CC2=O)Nc2n[nH]cc23)s1 [Compound 947259]
≥ 7.00	≥ 7.00	pIC50 [1, 5]: ≥ 7.00; pIC50 [2, 6]: 6.00 to 7.00	COc1ncccc1S(=O)(=O)N1CCC2(CC1)C1=C(CC(C)(C)CC1=O)Nc1n[nH]cc12 [Compound 947260]
–	–	pIC50 [1, 3]: ≥ 7.00; pIC50 [2, 4]: ≥ 7.00	Cc1cccc(S(=O)(=O)N2CCC3(CC2)C2=C(CC(C)(C)CC2=O)Nc2n[nH]cc23)c1 [Compound 947261]
–	–	pIC50 [1, 3]: 6.00 to 7.00; pIC50 [2, 4]: 6.00 to 7.00	CC1(C)CC(=O)C2=C(C1)Nc1n[nH]cc1C21CCN(S(=O)(=O)c2cc(F)ccn2)CC1 [Compound 947262]
–	–	pIC50 [1, 3]: ≥ 7.00; pIC50 [1, 5]: 6.00 to 7.00; pIC50 [2, 4]: ≥ 7.00; pIC50 [2, 6]: 5.30 to 6.00	COc1cc(S(=O)(=O)N2CCC3(CC2)C2=C(CC(C)(C)CC2=O)Nc2n[nH]cc23)ccc1F [Compound 947263]
≥ 7.00	≥ 7.00	pIC50 [1, 5]: ≥ 7.00; pIC50 [2, 6]: 6.00 to 7.00	CC1(C)CC(=O)C2=C(C1)Nc1n[nH]cc1C21CCN(S(=O)(=O)c2cccc(C(F)F)c2)CC1 [Compound 947264]
≥ 7.00	6.00 to 7.00	–	CC1(C)CC(=O)C2=C(C1)Nc1n[nH]cc1C21COC2(CN(C(=O)C3CCC(F)(F)C3)C2)C1 (stereo not drawn) [Compound 947265]
≥ 7.00	≥ 7.00	–	CC1CC(C(=O)N2CC3(C2)CC2(CO3)C3=C(CC(C)(C)CC3=O)Nc3n[nH]cc32)C1 (stereo not drawn) [Compound 947266]
≥ 7.00	6.00 to 7.00	–	CC1(C)CC(=O)C2=C(C1)Nc1n[nH]cc1C21COC2(CN(C(=O)C3CCC(F)CC3)C2)C1 (stereo not drawn) [Compound 947267]
≥ 7.00	≥ 7.00	–	CC1CCC(C(=O)N2CC3(C2)CC2(CO3)C3=C(CC(C)(C)CC3=O)Nc3n[nH]cc32)C1 (stereo not drawn) [Compound 947268]
≥ 7.00	≥ 7.00	pIC50 [1, 9]: 6.00 to 7.00; pIC50 [2, 10]: 6.00 to 7.00	CC1CCC(CC(=O)N2CC3(C2)CC2(CO3)C3=C(CC(C)(C)CC3=O)Nc3n[nH]cc32)C1 (stereo not drawn) [Compound 947269]
≥ 7.00	6.00 to 7.00	–	CCC(C)C(=O)N1CC2(C1)CC1(CO2)C2=C(CC(C)(C)CC2=O)Nc2n[nH]cc21 (stereo not drawn) [Compound 947270]

pIC50 [1, 7]	pIC50 [2, 8]	further results	SMILES
≥ 7.00	6.00 to 7.00	–	CC1(C)CC(=O)C2=C(C1)Nc1n[nH]cc1C21COC2(CN(C(=O)C3(C)CC(F)C3)C2)C1 (stereo not drawn) [Compound 947271]
≥ 7.00	≥ 7.00	–	CC1(C)CC(=O)C2=C(C1)Nc1n[nH]cc1C21COC2(CN(C(=O)C3CC3(F)F)C2)C1 (stereo not drawn) [Compound 947272]
≥ 7.00	≥ 7.00	–	CC(C)C1CC(C(=O)N2CC3(C2)CC2(CO3)C3=C(CC(C)(C)CC3=O)Nc3n[nH]cc32)C1 (stereo not drawn) [Compound 947273]
≥ 7.00	6.00 to 7.00	–	CC1CCCC1C(=O)N1CC2(C1)CC1(CO2)C2=C(CC(C)(C)CC2=O)Nc2n[nH]cc21 (stereo not drawn) [Compound 947274]
≥ 7.00	≥ 7.00	pIC50 [1, 9]: 6.00 to 7.00; pIC50 [2, 10]: 6.00 to 7.00	CC1(C)CC(=O)C2=C(C1)Nc1n[nH]cc1C21COC2(CN(C(=O)C(C)(F)F)C2)C1 (stereo not drawn) [Compound 947275]
≥ 7.00	≥ 7.00	–	CC1(C)CC(=O)C2=C(C1)Nc1n[nH]cc1C21COC2(CN(C(=O)C(C)(C)F)C2)C1 (stereo not drawn) [Compound 947276]
≥ 7.00	≥ 7.00	–	CC1(C)CC(=O)C2=C(C1)Nc1n[nH]cc1C21COC2(CN(C(=O)C3(F)CCCC3)C2)C1 (stereo not drawn) [Compound 947277]
≥ 7.00	≥ 7.00	–	CC1(C)CC(=O)C2=C(C1)Nc1n[nH]cc1C21COC2(CN(C(=O)CC3CC(F)(F)C3)C2)C1 (stereo not drawn) [Compound 947278]
≥ 7.00	≥ 7.00	–	CC1(C)CC(=O)C2=C(C1)Nc1n[nH]cc1C21COC2(CN(C(=O)C3(F)CCC3)C2)C1 (stereo not drawn) [Compound 947279]
≥ 7.00	≥ 7.00	–	CC1(C)CC(=O)C2=C(C1)Nc1n[nH]cc1C21COC2(CN(C(=O)C(F)(F)F)C2)C1 (stereo not drawn) [Compound 947280]
≥ 7.00	≥ 7.00	pIC50 [1, 9]: 6.00 to 7.00; pIC50 [2, 10]: 6.00 to 7.00	Cc1ccc(CC(=O)N2CC3(C2)CC2(CO3)C3=C(CC(C)(C)CC3=O)Nc3n[nH]cc32)cc1 (stereo not drawn) [Compound 947281]
≥ 7.00	6.00 to 7.00	–	CC1(C)CC(=O)C2=C(C1)Nc1n[nH]cc1C21COC2(CN(C(=O)C3CC(C)(C)C3)C2)C1 (stereo not drawn) [Compound 947282]
≥ 7.00	≥ 7.00	–	CC1(C)CC(=O)C2=C(C1)Nc1n[nH]cc1C21COC2(CN(C(=O)c3cccc(F)c3)C2)C1 (stereo not drawn) [Compound 947283]
≥ 7.00	6.00 to 7.00	–	Cc1cccc(C(=O)N2CC3(C2)CC2(CO3)C3=C(CC(C)(C)CC3=O)Nc3n[nH]cc32)c1C (stereo not drawn) [Compound 947284]
≥ 7.00	6.00 to 7.00	–	Cc1ccc(C)c(C(=O)N2CC3(C2)CC2(CO3)C3=C(CC(C)(C)CC3=O)Nc3n[nH]cc32)c1 (stereo not drawn) [Compound 947285]
≥ 7.00	≥ 7.00	–	Cc1ccc(C(=O)N2CC3(C2)CC2(CO3)C3=C(CC(C)(C)CC3=O)Nc3n[nH]cc32)cc1C (stereo not drawn) [Compound 947286]
≥ 7.00	6.00 to 7.00	–	Cc1ccccc1C(=O)N1CC2(C1)CC1(CO2)C2=C(CC(C)(C)CC2=O)Nc2n[nH]cc21 (stereo not drawn) [Compound 947287]
≥ 7.00	≥ 7.00	pIC50 [1, 9]: 6.00 to 7.00; pIC50 [2, 10]: 6.00 to 7.00	CC1(C)CC(=O)C2=C(C1)Nc1n[nH]cc1C21COC2(CN(C(=O)C3CCC3)C2)C1 (stereo not drawn) [Compound 947288]
≥ 7.00	≥ 7.00	–	CC1(C)CC(=O)C2=C(C1)Nc1n[nH]cc1C21COC2(CN(C(=O)c3ccccc3F)C2)C1 (stereo not drawn) [Compound 947289]
≥ 7.00	≥ 7.00	–	Cc1ccc(C(=O)N2CC3(C2)CC2(CO3)C3=C(CC(C)(C)CC3=O)Nc3n[nH]cc32)cc1 (stereo not drawn) [Compound 947290]
